{"source": "patent US20230012368A1", "about": "(Hoffmann-La Roche Inc., priority 2018, published 2023)", "note": "Counter-ions that a name gives are not always drawn.", "data": [{"tested_on": "Acinetobacter baumannii ATCC 17978", "experiment": "Antimicrobial susceptibility testing: 90% growth inhibitory concentration (IC90) determination", "format": "cell-based", "settings": "90% growth inhibitory concentration; Acinetobacter baumannii ATCC17978; Iso-Sensitest broth, OD 600 nm over 16h; read-out: ATCC17978 IC90", "procedure": "(§1) Antimicrobial Susceptibility Testing:\n(§2) 90% Growth Inhibitory Concentration (IC90) Determination\n(§3) The in vitro antimicrobial activity of the compounds was determined according to the following procedure:\n(§4) The assay used a 10-points Iso-Sensitest broth medium to measure quantitatively the in vitro activity of the compounds against Acinetobacter baumannii ATCC 17978 and Acinetobacter baumannii ATCC 17961.\n(§5) Stock compounds in DMSO were serially twofold diluted (e.g. range from 50 to 0.097 μM final concentration) in 384 wells microtiter plates and inoculated with 49 μl the bacterial suspension in Iso-Sensitest medium to have a final cell concentration of ˜5×10^(5) CFU/ml in a final volume/well of 50 ul/well. Microtiter plates were incubated at 35±2° C.\n(§6) Bacterial cell growth was determined with the measurement of optical density at λ=600 nm each 20 minutes over a time course of 16h. Growth inhibition was calculated during the logarithmic growth of the bacterial cells with determination of the concentration inhibiting 50% (IC50) and 90% (IC90) of the growth.\n(§7) Table 1 provides the 90% growth inhibitory concentrations (IC90) in micromoles per liter of the compounds of present invention obtained against the strain Acinetobacter baumannii ATCC17978 and Acinetobacter baumannii ATCC17961.", "units": {"IC90": "nM"}, "values": [{"smiles": "Cc1cc(Nc2nccn3c(-c4ccc(Cl)cc4)cnc23)ccc1C(=O)N(C)CCC1CCNCC1", "note": "[Example 88, 4-((3-(4-chlorophenyl)imidazo [1,2-a]pyrazin-8-yl)amino)-N,2-dimethyl-N-(2-(piperidin-4-yl)ethyl)benzamide hydrochloride]", "IC90": 250}, {"smiles": "COc1ccc(-c2cnc3c(Nc4ccc(C(=O)NCCC5CCN(C)CC5)c(C)c4)nccn23)cc1", "note": "[Example 195, 4-[[3-(4-methoxyphenyl)imidazo[1,2-a]pyrazin-8-yl]amino]-2-methyl-N-[2-(1-methylpiperidin-4-yl)ethyl]benzamide;hydrochlo-ride]", "IC90": 360}]}, {"tested_on": "Acinetobacter baumannii ATCC 17978", "experiment": "Antimicrobial susceptibility testing: 90% growth inhibitory concentration (IC90) determination", "format": "cell-based", "settings": "Acinetobacter baumannii, ATCC17978, 16 h, 90% growth inhibitory concentration; Acinetobacter baumannii ATCC17978; Iso-Sensitest broth, OD 600 nm over 16h; read-out: ATCC17978 IC90", "procedure": "as §1, §2, §3, §4, §5, §6, §7", "units": {"IC90": "nM"}, "values": [{"smiles": "CCc1cc(Nc2nccn3c(-c4ccc(Oc5cc(OC)ncn5)c(F)c4F)cnc23)ccc1C(=O)N[C@@H](C)CN", "note": "[Example 463, (S)-N-(1-aminopropan-2-yl)-4-((3-(2,3-difluoro-4-((6-methoxypyrimidin-4-yl)oxy)phenyl)imidazo[1,2-a]pyrazin-8-yl)amino)-2-ethylbenzamide]", "IC90": 840}, {"smiles": "CCc1cc(Nc2nccn3c(-c4ccc(OCC#N)c(F)c4F)cnc23)ccc1C(=O)NCCNC(=O)CN", "note": "[Example 136, N-[2-[(2-aminoacetyl)amino]ethyl]-4-[[3-[4-(cyanomethoxy)-2,3-difluoro-phenyl]imidazo[1,2-a]pyrazin-8-yl]amino]-2-ethyl-benzamide formate]", "IC90": 60}, {"smiles": "CCc1cc(Nc2nccn3c(-c4ccc(OC)c(F)c4F)cnc23)ccc1C(=O)NCC(=O)NCCN1CCC1", "note": "[Example 446, N-[2-[2-(azetidin-1-yl)ethylamino]-2-oxo-ethyl]-4-[[3-(2,3-difluoro-4-methoxy-phenyl)imidazo[1,2-a]pyrazin-8-yl]amino]-2-ethyl-benzamide; formic acid]", "IC90": 300}, {"smiles": "CCc1cc(Nc2nccn3c(-c4ccc(OC(F)F)c(F)c4F)cnc23)ccc1C(=O)NCCC(=O)NCCN(C)C", "note": "[Example 325, 4-[[3-[4-(difluoromethoxy)-2,3-difluorophenyl]imidazo[1,2-a]pyrazin-8-yl]amino]-N-[3-[2-(dimethylamino)ethylamino]-3-oxopropyl]-2-ethylbenzamide]", "IC90": 150}, {"smiles": "CCc1cc(Nc2nccn3c(-c4ccc(OC)c(F)c4F)cnc23)ccc1C(=O)NCCCC(=O)N1CCN[C@H](CO)C1", "note": "[Example 161, 4-[[3-(2,3-difluoro-4-methoxy-phenyl)imidazo[1,2-a]pyrazin-8-yl]amino]-2-ethyl-N-[4-[(3S)-3-(hydroxymethyl)piperazin-1-yl]-4-oxo-butyl]benzamide]", "IC90": 80}, {"smiles": "CCc1cc(Nc2nccn3c(-c4ccc(Oc5nccc(C)n5)c(F)c4F)cnc23)ccc1C(=O)NCCNC(=O)[C@@H](N)CCNC(=N)N", "note": "[Example 445, (S)-N-(2-(2-amino-4-guanidinobutanamido)ethyl)-4-((3-(2,3-difluoro-4-((4-methylpyrimidin-2-yl)oxy)phenyl)imidazo[1,2-a]pyrazin-8-yl)amino)-2-ethylbenzamide formiate 1:2]", "IC90": 380}, {"smiles": "COc1ccc(-c2cnc3c(Nc4ccc(C(=O)N(C)CCN(C)C)c(C)c4)nccn23)cc1", "note": "[Example 18, N-(2-(dimethylamino)ethyl)-4-((3-(4-methoxyphenyl)imidazo [1,2-a]pyrazin-8-yl)amino)-N,2-dimethylbenzamide]", "IC90": 2200}, {"smiles": "CNC(=O)c1ccc(Nc2nccn3c(-c4ccc(OC(F)F)cc4)cnc23)cc1C(C)C", "note": "[Example 166, 4-[[3-[4-(difluoromethoxy)phenyl]imidazo[1,2-a]pyrazin-8-yl]amino]-2-isopropyl-N-methyl-benzamide]", "IC90": 980}, {"smiles": "Cc1cc(Nc2nccn3c(-c4ccc(OCC#CCN)c(F)c4)cnc23)ccc1C(=O)N(C)C", "note": "[Example 313, 4-[[3-[4-(4-aminobut-2-ynoxy)-3-fluorophenyl]imidazo[1,2-a]pyrazin-8-yl]amino]-N,N,2-trimethylbenzamide]", "IC90": 1200}, {"smiles": "COc1ccc(-c2cnc3c(Nc4ccc(C(=O)N(C)CC5CCOC5)c(C)c4)nccn23)cc1F", "note": "(stereo not shown) [Example 71, 4-((3-(3-fluoro-4-methoxyphenyl)imidazo [1,2-a]pyrazin-8-yl)amino)-N,2-dimethyl-N-((tetrahydrofuran-3-yl)methyl)benzamide]", "IC90": 1100}, {"smiles": "CCc1cc(Nc2nccn3c(-c4ccc(OC)c(F)c4F)cnc23)ccc1C(=O)NCCNC(=O)N1CCN[C@H](C(=O)O)C1", "note": "[Example 350, (2S)-4-[2-[[4-[[3-(2,3-difluoro-4-methoxyphenyl)imidazo[1,2-a]pyrazin-8-yl]amino]-2-ethylbenzoyl]amino]ethylcar-bamoyl]piperazine-2-carboxylic acid;formic acid]", "IC90": 1200}, {"smiles": "CCc1cc(Nc2nccn3c(-c4ccc(OC)c(F)c4F)cnc23)ccc1C(=O)NCC1CCN(CCC2CCCN2)CC1", "note": "(stereo not shown) [Example 556, 4-[[3-(2,3-difluoro-4-methoxy-phenyl)imidazo[1,2-a]pyrazin-8-yl]amino]-2-ethyl-N-[[1-(2-pyrrolidin-2-ylethyl)-4-piperidyl]methyl]benzamide]", "IC90": 310}, {"smiles": "COc1ccc(-c2cnc3c(Nc4ccc(C(=O)NCCCNC(=O)[C@@H]5C[C@](C)(O)CN5)c(C)c4)nccn23)c(F)c1F", "note": "[Example 361, (2S,4S)-N-[3-[[4-[[3-(2,3-difluoro-4-methoxyphenyl)imidazo[1,2-a]pyrazin-8-yl]amino]-2-methylbenzoyl]amino]propyl]-4-hydroxy-4-methylpyrrolidine-2-carboxamide]", "IC90": 80}, {"smiles": "COc1ccc(-c2cnc3c(Nc4ccc(C(=O)NCCN5CCNCC5)cc4)nccn23)cc1Cl", "note": "[Example 30, 4-((3-(3-chloro-4-methoxyphenyl)imidazo [1,2-a]pyrazin-8-yl)amino)-N-(2-(piperazin-1-yl)ethyl)benzamide hydrochloride]", "IC90": 3700}, {"smiles": "CCc1cc(Nc2nccn3c(-c4ccc(OC)c(F)c4F)cnc23)ccc1C(=O)NCCC(=O)N1CCN[C@H](CO)C1", "note": "[Example 160, 4-[[3-(2,3-difluoro-4-methoxy-phenyl)imidazo[1,2-a]pyrazin-8-yl]amino]-2-ethyl-N-[3-[(3S)-3-(hydroxymethyl)piperazin-1-yl]-3-oxo-propyl]benzamide]", "IC90": 150}, {"smiles": "CCc1cc(Nc2nccn3c(-c4ccc(OC)c(F)c4F)cnc23)ccc1C(=O)NCCNC(=O)[C@@H](N)CCCCN", "note": "[Example 398, N-[2-[[(2S)-2,6-diaminohexanoyl]amino]eth-yl]-4-[[3-(2,3-difluoro-4-methoxy-phenyl)imidazo[1,2-a]pyrazin-8-yl]amino]-2-ethyl-benzamide; formic acid]", "IC90": 410}, {"smiles": "CCc1cc(Nc2nccn3c(-c4ccc(OC)c(F)c4F)cnc23)ccc1C(=O)NCCNC(=O)CCCCNC(=N)N", "note": "[Example 139, 4-[[3-(2,3-difluoro-4-methoxy-phenyl)imidazo[1,2-a]pyrazin-8-yl]amino]-2-ethyl-N-[2-(5-guanidino-pentanoylamino)ethyl]benzamide formate]", "IC90": 60}, {"smiles": "CCc1cc(Nc2nccn3c(-c4ccc(Oc5ccc(F)cn5)c(F)c4F)cnc23)ccc1C(=O)NCCNC(=O)CCN", "note": "[Example 425, N-[2-(3-aminopropanoylamino)ethyl]-4-[[3-[2,3-difluoro-4-[(5-fluoro-2-pyridyl)oxy]phenyl]imidazo [1,2-a]pyrazin-8-yl]amino]-2-ethyl-benzamide; formic acid]", "IC90": 600}, {"smiles": "CCc1cc(Nc2nccn3c(-c4ccc(OC)c(F)c4F)cnc23)ccc1C(=O)N[C@@H](C)CNC(C)=N", "note": "[Example 480, 4-[[3-(2,3-difluoro-4-methoxyphenyl)imidazo[1,2-a]pyrazin-8-yl]amino]-#N!- [(2#S!)-1-(ethanimidoylamino)propan-2-yl]-2-ethylbenzamide;formic acid]", "IC90": 270}, {"smiles": "CCc1cc(Nc2nccn3c(-c4ccc(Oc5ncccn5)c(F)c4F)cnc23)ccc1C(=O)NCC1CCN(CC2CCNC2)CC1", "note": "(stereo not shown) [Example 549, 4-((3-(2,3-difluoro-4-(pyrimidin-2-yloxy)phenyl)imidazo[1,2-a]pyrazin-8-yl)amino)-2-ethyl-N-((1-(pyrrolidin-3-ylmethyl)piperidin-4-yl)methyl)benzamide formate]", "IC90": 490}, {"smiles": "CCc1cc(Nc2nccn3c(-c4ccc(OC)c(F)c4F)cnc23)ccc1C(=O)NCCNC(=O)CCCN", "note": "[Example 360, N-[2-(4-aminobutanoylamino)ethyl]-4-[[3-(2,3-difluoro-4-methoxyphenyl)imidazo[1,2-a]pyrazin-8-yl]amino]-2-ethylbenzamide]", "IC90": 70}, {"smiles": "CCc1cc(Nc2nccn3c(-c4ccc(OC(F)F)cc4)cnc23)ccc1C(=O)NCCN1CCNCC1", "note": "[Example 212, 4-[[3-[4-(difluoromethoxy)phenyl]im-idazo[1,2-a]pyrazin-8-yl]amino]-2-ethyl-N-(2-piperazin-1-ylethyl)benzamide;hydrochlo-ride]", "IC90": 640}, {"smiles": "CCc1cc(Nc2nccn3c(-c4ccc(Oc5ccccn5)c(F)c4F)cnc23)ccc1C(=O)NCCNC(=O)[C@H](N)CCCNC(=N)N", "note": "[Example 422, N-[2-[[(2R)-2-amino-5-guanidino-pentanoyl]amino]ethyl]-4-[[3-[2,3-difluoro-4-(2-pyridyloxy)phenyl]imidazo [1,2-a]pyrazin-8-yl]amino]-2-ethyl-benzamide; formic acid]", "IC90": 870}]}]}
